What follows are compounds tested on BAT1 gene-overexpressing plant (assay: Restoring of hypocotyl height of BAT1 gene-overexpressing plant by brassinosteroid in the medium). Settings: brassinosteroid added at 0.3 μM or 3 μM to 0.5x B5 medium, measured after 7 days (FIG. 5A).
Type: in vivo, Arabidopsis thaliana
Protocol: The wild type and the BAT1 gene-overexpressing plant were vertically grown in a greenhouse whose temperature was regulated at about 23° C. under a long-day condition having a 24-hour period of 16-hour light condition/8-hour dark condition in 0.5× B5 media. A hypocotyl of the vertical-grown plant was distinctively shown in the BAT1 gene-overexpressing plant. Various brassinosteroids were treated at various concentrations, and a height of the hypocotyl was measured after 7 days. As the brassinosteroid, brassinolide (BL), castasterone (CS), teasterone (TE), or typhasterol (TY) was added at a concentration of 0.3 μM or 3 μM to the medium.

Row | Structure (SMILES) | length (height) of hypocotyl
1 | CC(C)[C@H](C)[C@@H](O)[C@H](O)[C@@H](C)[C@H]1CC[C@H]2[C@@H]3CC(=O)[C@H]4C[C@H](O)CC[C@]4(C)[C@H]3CC[C@]12C [typhasterol] | significantly increased
2 | CC(C)[C@H](C)[C@@H](O)[C@H](O)[C@@H](C)[C@H]1CC[C@H]2[C@@H]3CC(=O)[C@H]4C[C@H](O)[C@H](O)C[C@]4(C)[C@H]3CC[C@]12C [castasterone] | significantly increased
3 | CC(C)[C@H](C)[C@@H](O)[C@H](O)[C@@H](C)[C@H]1CC[C@H]2[C@@H]3COC(=O)[C@H]4C[C@H](O)[C@H](O)C[C@]4(C)[C@H]3CC[C@]12C [brassinolide] | significantly increased
